Measured values reported in patent US20260337177A1, “TEAD CORE INHIBITORS FOR CANCER THERAPEUTICS” (University of Florida Research Foundation, Incorporated, priority 2023, published 2026).
Like-named read-outs stand apart in the source and are kept apart here.

What was measured:
TEAD2-YBD = TEAD2-YBD (Homo sapiens, UniProt Q15562); experiment: Intact protein mass spectrometry, covalent modification of TEAD2-YBD; assay type: binding
Description: To substantiate the covalent interaction between Compound 22 and TEAD2-YBD, intact mass spectrometry was employed to monitor the protein's mass change upon binding with the compound.
Human TEAD2-YBD (217-447) (TEAD2_HUMAN, UniProtKB Q15562) was expressed and purified as previously described.^79 To eliminate endogenous palmitoylation, Cys380Ser mutant (TEAD2-C380S) was generated and purified using the same protocol. [00392]hTEAD2 was expressed, purified, and deacylated as reported.^52 Briefly, the yap-binding domain (YBD) of […] was cloned in pET28a vector with the N terminal 6x His tag. The recombinant protein was induced at 16 ° C using 0.2 mM isopropyl bD-1-thiogalactopyranoside (IPTG) for 10 h for overexpression in Escherichia coli strain BL2 (DE3) CodonPlus competent cells (Invitrogen). Then cells were harvested, followed by lysis and the supernatant was loaded onto the HisTrap FF column (GE Healthcare). The hTEAD4-YBD was eluted with elution buffer (50 mM Hepes 8.0, 300 mM NaCl, 10% Glycerol, 1 mM TCEP, 125 mM imidazole). To eliminate the endogenous fatty acid, the protein was incubated with 0.2 mM hydroxylamine for 2 h and further purified through gel filtration chromatography in the final buffer (25 mM Hepes pH 8.0, 100 mM NaCl, 1 mM TCEP, and 5% glycerol). Collected fractions were concentrated to 5 mg/mL and flash frozen for further use. […]

Huh7 cells = experiment: Huh7 cell proliferation assay (CCK8); assay type: cell-based, human; details: for IC50: Homo sapiens
Description: CCK8 assay kit was used to determine antiproliferative activity of synthesized compounds against Huh7 cell line. First, Huh7 cells were seeded into 96-well plates at a density of 3000 cells/well and incubated overnight. Cells were then co-incubated with compounds at 8 concentrations for 72 h. Then, the cell proliferation was determined by the CCK8 kit according to the standard protocol. Experiments were performed in triplicate.

NCI-H226 cells = experiment: NCI-H226 cell growth inhibition (CCK-8, 3 days); assay type: cell-based; details: Homo sapiens, NCI-H226, 72 h, NF2-deficient mesothelioma, read-out: Antiproliferative IC50, NCI-H226
Description: The inhibitory effects of compound 22 were assessed against YAP TEAD related NF2-deficient mesothelioma cell NCI-H226 and triple negative breast cancer cell Hs578T. The growth inhibition ratio was measured using a CCK-8 assay after 3 days of treatments.

YAP-TEAD = experiment: Co-immunoprecipitation of endogenous YAP and TEAD in NCI-H226 cells; assay type: cell-based
Description: To assess if compound 22 inhibits the interaction between YAP/TAZ and TEAD proteins within the cell, compound 22 was administered to NF2-deficient NCI-H226 cells for 24 hours. Subsequently, the endogenous TEAD protein was isolated through immunoprecipitation using a pan-TEAD antibody and examined the immunocomplexes for the presence of YAP/TAZ proteins using anti-YAP/TAZ antibodies (as depicted in FIG. 18).
[…] protein lysate extracted using lysis buffer were incubated with 5 μL pan-TEAD antibody (CST #13295, 33 g/ml) at 4 ° C overnight with rotation, and then incubated with 15 μL Protein G magnetic beads (Fisher #88847) at R.T. for 1 hour with rotation. After binding, beads were washed three times with lysis buffer and one time with ddH2O. IP samples were eluted using 1× gel loading buffer supplied with 20 mM DTT and boiled at 96 ° C for 10 min. […] protein lysate were used for input, and 3% IP flow-thru were used for binding efficiency control. *0 indicated DMSO control. For the detection process, primary antibodies used were: YAP/TAZ rabbit monoclonal antibody (mAb) at a dilution of 1:2000, CST #8418S; Pan-TEAD rabbit mAb at 1:2000, CST #13295S; and 3-actin mouse mAb at 1:8000, Sigma #A5316. Secondary antibodies applied in 1× TBST were: Rabbit IgG-HRP at 1:10000 and Mouse IgG-HRP also at 1:10000.

CTGF and CYR61 = CTGF and CYR61 expression in xenograft tumor tissue (western blotting); assay type: in vivo; details: vs vehicle groups
Description: To elucidate the mechanism of compound 22-mediated antitumor activity in vivo, the expression level of CTGF and CYR61 in the tumor tissue were examined by western blotting.

HepG2 cells = experiment: Apoptosis by calcein AM and ethidium homodimer-1 staining, HepG2; assay type: cell-based, human

Sequence of TEAD2-YBD (Q15562 217-447): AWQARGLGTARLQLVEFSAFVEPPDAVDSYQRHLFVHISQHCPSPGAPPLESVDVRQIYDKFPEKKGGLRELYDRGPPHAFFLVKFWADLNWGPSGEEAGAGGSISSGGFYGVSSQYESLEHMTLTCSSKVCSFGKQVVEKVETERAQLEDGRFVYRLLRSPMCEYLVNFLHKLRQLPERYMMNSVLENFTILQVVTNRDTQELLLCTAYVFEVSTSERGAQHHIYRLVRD

O=C(CCl)c1c[nH]c2cc(Cl)c(OCc3cccc(C(F)(F)F)c3)cc12 [Compound 22, 2-chloro-1-(6-chloro-5-((3-(trifluoromethyl)benzyl)oxy)-1H-indol-3-yl)ethan-1-one]
Labeling of TEAD2-YBD (TEAD2-YBD; 15 hours at room temperature): completely labeled with a single molecule | Intact mass shift of TEAD2-YBD (TEAD2-YBD; excess compound, covalent complex, room temperature): 365.5581 Da | IC50 (Huh7 cells; Huh-7, 72 h, 3 days, CCK8, mean ± SD of three independent experiments, read-out: Cell proliferation assay IC50, Huh7): 0.9 ± 0.3 µM | IC50 (Huh7 cells; Huh-7, Table 3 column is in μM, read-out: Huh7 cell growth inhibition / proliferation IC50): 0.9 µM | Activity ratio, 3-CF3 derivative compound 22 vs para-analogue compound 23 (Huh7 cells; more active than compound 23, Huh7): 16 fold | IC50 (NCI-H226 cells): 400 nM | Co-IP of YAP with pan-TEAD antibody (YAP-TEAD; 1 μM, 24 hours): significantly diminished | Interaction between YAP and TEAD (YAP-TEAD; "2.5 M", 24-hour treatment): almost entirely inhibited | CTGF expression in tumor tissue (CTGF and CYR61): remarkable decrease | CYR61 expression in tumor tissue (CTGF and CYR61): remarkable decrease | HepG2 cell apoptosis (HepG2 cells): promotes HepG2 cell apoptosis
